Literature values as cited in article PMC5238771 (OncoTargets and therapy, 2017).

Experiments:
[1] = test system: CYP3A4 enzyme; conditions: both in vitro and in vivo
[2] = test system: SMMC-7721 human hepatocellular carcinoma cell line; conditions: SMMC-7721 cells, dose-dependent and time-dependent
[3] = test system: HepG2 human hepatocellular carcinoma cell line; conditions: HepG2 cells, dose-dependent and time-dependent

With C[C@]12CC[C@H](O)C[C@H]1CC[C@@H]1[C@@H]2CC[C@]2(C)[C@@H](c3ccc(=O)oc3)CC[C@]12O [bufalin] as the compound, how does the “Inhibition of CYP3A4 enzyme” value [1] read?
The value was “modest but significant inhibition”.

And the Inhibition of proliferation [2]?
The Inhibition of proliferation was “inhibited the proliferation”.

And the Inhibition of proliferation [3]?
The Inhibition of proliferation was “inhibited the proliferation”.
